Measured values taken from patent publication US12707803B2, “Light-emitting device” (Semiconductor Energy Laboratory Co., Ltd., priority 2022, dated 2026).
Values after ≈ are worked out from the molar mass of the structure shown.

Assay: water solubility of materials added to electron-injection buffer region
Type: physicochemical
Text: The table below lists the number of hydrophilic hpp groups, the number of hydrophobic tert-butyl groups, and water solubility of the materials added to the electron-injection buffer regions 914 in the light-emitting devices 7A to 7K.

Which solubility does the source give for `CC(C)(C)c1ccc2c(c1)C1(c3cc(N4CCCN5CCCN=C54)ccc3-c3ccc(N4CCCN5CCCN=C54)cc31)c1cc(C(C)(C)C)ccc1-2` [2′,7′tBu-2,7hpp2SF, 1,1′-(2′,7′-di-tert-butyl-9,9′-spirobi[9H-fluorene]-2,7-diyl)bis(1,3,4,6,7,8-hexahydro-2H-pyrimido[1,2-a]pyrimidine)] here?
The solubility was 0.058 to 0.062 mg/mL (≈ 82.5 to 88.2 µM).
